One may read the LD50 as the dose expected to kill half of the subjects tested. Read a low LD50 as greater toxicity.

Three compounds from US4874779A, “Mitomycin phosphate derivatives” (priority 1988, dated 1989) can be followed below.

Where a name gives a salt, the structure may show the parent alone. Read-outs that look alike come from different tables or passages of the source.

In one data set the test system is human lung tumor H2981. The data set can be described thus: Antitumor activity against subcutaneous human lung tumor H2981 xenograft in Balb C nu/nu female mice. The format is in vivo. Particulars: for time required to reach an average tumor volume of 750 mm^3: IIa 0.2 ml of 1 mg/ml, V 0.2 ml of 3 mg/ml, i.p. days 15, 21, 31, 37, untreated control 27 days. As to the method:
The arrows indicate the days on which drugs were given.
Antitumor activity of the compound of Example 1 (V) was evaluated in Balb C nu/nu female mice (4-6 weeks old, purchased from Life Sciences, St. Petersburg, Fl) implanted subcutaneously with a xenograft of human lung tumor H2981 in the right hind flank. Compound IIa served as positive control. Drug treatment was initiated on day 15 (day 0 being the day of tumor implant) when the tumors were approximately 100 mm^3 in volume. 0.2 Ml of the test compounds (1 mg/ml for IIa and 3 mg/ml for V in phosphate-buffered saline) were injected intraperitoneally on days 15, 21, 31, and 37. The results are graphically shown in FIG. 1 and indicate that the time required to reach an average tumor volume of 750 mm^3 was 45 days in mice treated with IIa, 63 days in mice treated with V, and 27 days in the untreated control group.
In general terms: Xenograft models place foreign cells or tissue in a host animal.

Data set [1] deals with human lung tumor cell line H2981. Kind of data set: Cytotoxicity to H2981 cells by inhibition of 3H-Thy incorporation. The format is cell-based. Particulars: for cytotoxic activity (in words): without alkaline phosphatase pre-treatment; for IC50: Homo sapiens. As for the experimental part: Cytotoxicity of compounds V, IIa, and mitomycin C was determined using human lung tumor cell line H2981. Thus a suspension of H2981 cells in Iscove's medium (IMDM) containing 10% fetal calf serum were plated into 96-well microtiter plates (10,000 cells/well). After 1 hr, the medium was removed, a pH 7.2 phosphate buffered saline solution (PBS) of the drug was added, and incubation at 37° C. was commenced for 1 hour. The cells were then washed twice, and incubation was continued an additional 17 hours, followed by a 6 hour pulse with ^3 H-Thy (1.0 μCi/well). The plates were frozen at -70° C. to detach the cells, and the cells were harvested onto glass fiber discs. The filters were counted on a Beckman 3701 scintillation counter. Inhibition of ^3 H-Thy incorporation was used as an indicator for cytotoxic effects.

The nature of data set [2]: Relative toxicity in Balb C nu/nu mice. The format is in vivo. The note with it: for LD50 / MTD at 600 h: mouse, in vivo, ip; for LD50: two equal doses spaced 4 days apart; for MTD at 600 h: 4 equal doses over a 25 day period, read-out: total amount tolerated. As to the method: The relative toxicities of IIa and V were determined in Balb C nu/nu mice. […] Total amounts of up to 40 mg/kg of IIa and 100 mg/kg of V were tolerated if given in 4 equal doses over a 25 day period.

As for `COC12C(COC(N)=O)C3=C(C(=O)C(C)=C(NCCOP(=O)(O)O)C3=O)N1CC1NC12` (centres unmarked) [Example 1, 9a-Methoxy-7-[[(phosphonooxy)ethyl]amino]mitosane disodium salt], the “antitumor effect compared with the corresponding alcohol (IIa)” value in the data set with human lung tumor H2981 (H2981 xenograft, i.p.) was “stronger antitumor effect than the corresponding alcohol”. Moreover, the “time required to reach an average tumor volume of 750 mm^3” value in the data set with human lung tumor H2981 came out at 63 days. For the same compound, the “cytotoxicity after pre-treatment with alkaline phosphatase (in words)” value in data set [1] (H2981 cells, V pre-treated with alkaline phosphatase) was “cytotoxicity comparable to that of IIa and mitomycin C”. Further, in data set [1] (H2981 cells), the “cytotoxic activity (in words)” value is “A small amount of cytotoxic activity”. In data set [2], the LD50 turned out to be 90 mg/kg and the MTD at 600 h is at most 100 mg/kg. Further, in data set [2] (relative to IIa), the “tolerability of prodrug (in words)” value is listed as “significantly more prodrug was tolerated because of its reduced toxicity”.

For `COC12C(COC(N)=O)C3=C(C(=O)C(C)=C(NCCO)C3=O)N1CC1NC12` (centres unmarked) [IIa], in the data set on human lung tumor H2981, the “time required to reach an average tumor volume of 750 mm^3” value amounted to 45 days. Further, the “cytotoxic activity (in words)” value in data set [1] (H2981 cells) is given as “highly cytotoxic”. In data set [1] (H2981, 1 h, pH 7.2, read-out: IC50 (cytotoxicity, inhibition of 3H-Thy incorporation)), the IC50 was around 1 µM. Besides, in data set [2], the LD50 was found to be 45 mg/kg and the MTD at 600 h is at least 40 mg/kg.

As to `CO[C@@]12[C@H](COC(N)=O)C3=C(C(=O)C(C)=C(N)C3=O)N1C[C@@H]1N[C@@H]12` [mitomycin C], the “cytotoxic activity (in words)” value in data set [1] (H2981 cells) is reported as “highly cytotoxic”. Also, in data set [1] (H2981 cells, 1 hour drug exposure in pH 7.2 PBS at 37° C., 17 hours further incubation, 6 hour 3H-Thy pulse, read-out: IC50 (cytotoxicity, inhibition of 3H-Thy incorporation)), the IC50 is around 1 µM.
